System: γ-secretase
Assay: Western blot of nectin-1 C-terminal fragments in hippocampal neurons overexpressing flag tagged nectin-1, treated with γ-secretase inhibitor
Assay type: cell-based, rat
Settings: 0.5 and 1 μM inhibitor, 24 hrs, transduced hippocampal neurons at 21 DIV
Procedure: Hippocampal neurons were plated at a density of 1.3×10^5 cells. The neurons at 21 DIV were transduced with an adenovirus vector expressing a C-terminal flag tagged nectin-1 for 24 hrs at a MOI of 50. Neurons were treated without (FIG. 3, lanes 1 and 2) or with 0.5 μM (FIG. 3, lanes 3 and 4) and 1 μM γ-secretase inhibitor X (FIG. 3, lanes 5 and 6) for 24 hrs. These cells were harvested in reducing sample buffer and analyzed on a 10% SDS-PAGE gel.
Technical difficulties preclude detection of endogenous C-terminal fragments, particularly the 35 and 24 kDa forms due to low expression levels in neurons. To circumvent this, C-terminal Flag tagged nectin-1 was over expressed in neurons as described above.

Which results are given for `CC(C)C[C@H](NC(=O)[C@H](Cc1ccccc1)C[C@@H](O)[C@H](Cc1ccccc1)NC(=O)OC(C)(C)C)C(=O)N[C@@H](Cc1ccccc1)C(N)=O` [γ-secretase inhibitor X]?
density of the 24 kDa nectin-1 band: reduced; density of the 37, 34 and 30 kDa nectin-1 bands: increased
